The record followed here is publication PMC3107525 (The Journal of neuroscience : the official journal of the …, 2011).

The target in one data set is SERT (Rattus norvegicus, UniProt P31652). The data set is classed as in vivo. The following applies: exogenously applied, anesthetized rats, mean ± SEM, n = 10.
The next data set deals with DAT (Rattus norvegicus, UniProt P23977). Type of data set: in vivo. The following applies: 10 mg/kg i.p., dorsal striatum.
Data set [1] has as its target T1, hSERT Y95F (Homo sapiens, UniProt P31645, Y95F).
For data set [2], the target named is T2, hSERT WT (Homo sapiens, UniProt P31645).
The target of data set [3] is T2, hSERT WT. The source holds these as a separate data set.
Data set [4] concerns the target T2, hSERT WT. Conditions: 0.2-0.5 nM [125I]RTI-55, 1 hour on ice.
For the next data set, the target named is hSERT Y95F/C109A/I179C (Homo sapiens, UniProt P31645, C109A/I179C/Y95F). Nature of the data set: Uptake with MTSET-sensitive mutant in COS-7 cells. Type of data set: cell-based.
Another data set concerns the target hSERT D98G (Homo sapiens, UniProt P31645, D98G).
In data set [5] the target is T2, hSERT WT. Conditions: 20 μM 5HT or 2 mM DA extracellular.
The target in data set [6] is T2, hSERT WT. Conditions: gluconate substituted for Cl-.
Data set [7] has as its target T1, hSERT Y95F. The source holds these as a separate data set.
The target of data set [8] is T2, hSERT WT. The source holds these as a separate data set.
A further data set has as its system NCCc1ccc(O)c(O)c1. In words: cells, lysate or membranes. Conditions: other: substrate uptake, COS-7, 96 well plates, 10 min, room temperature; pH 7.4.
[9] abbreviates: substrate uptake, COS-7, 96 well plates, 10 min, room temperature.
Setting [10] is: read-out: IC50 for inhibition of [3H]5HT uptake.
Setting [11] is: read-out: IC50 for inhibition of [3H]DA uptake.

The IC50 is the point on the concentration scale where inhibition reaches its midpoint. One may read the Km as the concentration of substrate that gives half-maximal velocity.

Read-outs that look alike come from different tables or passages of the source.

SERT, sequence (P31652 whole entry): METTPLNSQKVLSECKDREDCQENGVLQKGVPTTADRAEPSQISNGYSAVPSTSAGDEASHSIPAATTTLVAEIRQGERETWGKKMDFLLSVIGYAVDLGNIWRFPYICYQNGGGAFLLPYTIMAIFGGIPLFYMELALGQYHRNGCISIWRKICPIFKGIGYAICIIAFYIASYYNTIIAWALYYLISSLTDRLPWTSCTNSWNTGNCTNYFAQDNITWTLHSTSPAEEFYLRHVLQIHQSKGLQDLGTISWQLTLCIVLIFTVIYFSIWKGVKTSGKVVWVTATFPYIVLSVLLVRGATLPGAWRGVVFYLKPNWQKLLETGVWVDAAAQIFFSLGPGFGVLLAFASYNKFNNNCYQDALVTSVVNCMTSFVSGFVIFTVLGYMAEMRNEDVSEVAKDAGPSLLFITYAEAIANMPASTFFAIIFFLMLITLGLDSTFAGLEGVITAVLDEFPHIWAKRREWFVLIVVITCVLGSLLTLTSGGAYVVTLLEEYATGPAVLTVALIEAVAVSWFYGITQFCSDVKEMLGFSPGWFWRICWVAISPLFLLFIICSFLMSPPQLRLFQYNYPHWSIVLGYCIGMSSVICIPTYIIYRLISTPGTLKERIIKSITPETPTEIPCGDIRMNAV
DAT, sequence (P23977 whole entry): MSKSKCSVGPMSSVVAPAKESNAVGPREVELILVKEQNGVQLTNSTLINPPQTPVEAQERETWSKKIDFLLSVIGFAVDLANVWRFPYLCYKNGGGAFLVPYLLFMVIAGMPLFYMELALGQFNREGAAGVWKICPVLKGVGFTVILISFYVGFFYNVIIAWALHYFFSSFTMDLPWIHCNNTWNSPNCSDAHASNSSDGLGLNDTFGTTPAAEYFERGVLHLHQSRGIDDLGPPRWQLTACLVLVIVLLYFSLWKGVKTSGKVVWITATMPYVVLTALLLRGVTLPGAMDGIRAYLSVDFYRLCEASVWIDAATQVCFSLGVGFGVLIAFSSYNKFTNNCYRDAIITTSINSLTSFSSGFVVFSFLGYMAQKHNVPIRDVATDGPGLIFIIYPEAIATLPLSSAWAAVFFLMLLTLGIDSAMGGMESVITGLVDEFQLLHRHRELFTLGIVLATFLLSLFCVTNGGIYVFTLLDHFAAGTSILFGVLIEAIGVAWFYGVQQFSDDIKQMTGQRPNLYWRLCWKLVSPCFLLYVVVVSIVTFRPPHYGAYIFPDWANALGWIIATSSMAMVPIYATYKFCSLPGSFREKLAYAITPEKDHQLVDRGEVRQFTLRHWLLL

As to `NCCc1c[nH]c2ccc(O)cc12` [5HT, serotonin], the “baseline clearance time (T80)” value at SERT worked out at 73.4 ± 8.3 s.
`CN(C)CCCC1(c2ccc(F)cc2)OCc2cc(C#N)ccc21` (centres unmarked) [Citalopram, citalopram]: the “effect on DA clearance time (T80)” value on DAT is on record as “unaffected”.
As to `NCCc1ccc(O)c(O)c1` [DA, dopamine], the Vmax is recorded as 2.4 ± 0.52 pmol/well/min on hSERT Y95F [1] (setting [9]) and 2.7 ± 0.65 pmol/well/min on hSERT WT [2] (setting [9]). In addition, the “Vmax for DA transport relative to Vmax for 5HT transport” value at hSERT Y95F [1] (times higher) and on hSERT WT [2] (times higher) was 4–5 times in each case. On SERT, the “baseline clearance time (T80)” value stood at 79.5 ± 4.1 s. For the same molecule, the “mode of inhibition of 5HT uptake” value at hSERT WT [3] is given as “competitive inhibitor”. Besides, at hSERT WT [4], the “relation of 5HT and DA binding sites” value is on record as “mutually exclusive”. Further, the “transport of DA” value at hSERT Y95F/C109A/I179C (before or after MTSET treatment) is on record as < 2%. Further, the DA uptake activity result on hSERT D98G is “no DA uptake activity”. Also, on hSERT WT [5], the “efflux of preloaded [3H]5HT” value was “substantial and comparable efflux”. In addition, at hSERT WT [5], the “efflux of preloaded [3H]DA” value is “no significant efflux”. The “apparent affinity for Cl- in substrate transport” value at hSERT WT [6] was ~ 100 mM.
Take `CNC(C)Cc1ccc2c(c1)OCO2` (centres unmarked) [MDMA, 3,4-methylenedioxymethamphetamine]: the half-inhibitory concentration (IC50) on hSERT Y95F [7] (setting [10]) came out at 3.1 ± 0.43 µM; at hSERT Y95F [7] (setting [11]), 0.94 ± 0.11 µM; at hSERT WT [8] (setting [10]), 4.4 ± 0.84 µM; at hSERT WT [8] (setting [11]) it was 2.7 ± 0.33 µM.
Regarding `C[N+](C)(C)CCSS(C)(=O)=O` [MTSET, [2-(trimethylammonium)ethyl] methane-thiosulfonate], the “decrease of 5HT uptake activity” value on hSERT Y95F/C109A/I179C (10 mM MTSET, 10 min) was > 90%.
On to hSERT WT (Homo sapiens), for which the Km in the data set with NCCc1ccc(O)c(O)c1 was 78 ± 5.7 µM.
